# Assays:
# [1] = tested on: IL-1beta production in LPS-stimulated human monocytes; experiment: LPS-stimulated production of IL-1beta in human monocytes in vitro (ELISA); format: cell-based
# Text: 1,8-Cineol intensifies in particular the action of subtherapeutic concentrations of beclometasone which are relevant for the peripheral respiratory tract.
# [2] = tested on: FCS-stimulated production of superoxides (O2^−) in normal human monocytes; experiment: FCS-stimulated superoxide production of normal human monocytes in vitro (INT-formazan); format: cell-based; conditions: for INT-Formazan / O2^−: FCS 10%; for INT-Formazan / Comparison to control (%): Table 4 series
# Protocol: As already described, monocytes were isolated from 50 ml of venous blood which was repeatedly donated voluntarily for the experiments by healthy non-smoking subjects (n=4). […] To this end, the active compounds were incubated together with freshly isolated monocytes (10^5/ml) and the FCS stimulus (10%, from Sigma) for 20 hours in a cell culture medium (RPMI-1640, from Sigma). […] The determination of the cytosolic superoxide production is based on the reduction of the dye p-iodonitrotetrazolium violet (INTV), which reacts specifically with superoxide ions, to iodonitrotetrazolium formazan (formazan). INTV is taken up by the cells into the cytosol. Intracellularly, the nitrogen cycle of the INTV is reduced by free superoxide radicals, giving rise to a water-soluble intermediate and the water-insoluble formazan, which have their absorption maxima at 505 and 490 nm, respectively. […] At the end of an experiment, the cell lysate is (after treatment with hydrochloric acid) measured at 492 nm in a photometer. Here, the absorption of light is proportional to the amount of intracellularly accumulated INT-formazan which can then be determined using a formazan calibration curve. The INT-formazan accumulation for its part is determined as a measure for the intracellular production of superoxide.
# [3] = tested on: NO production in stimulated human monocytes; experiment: NO production in stimulated human monocytes in vitro (FIG. 3); format: cell-based
# [4] = tested on: patients with persistent bronchial asthma (GINA II); experiment: Clinical add-on therapy with oral 1,8-cineol, persistent bronchial asthma GINA II, 10 patients; format: in vivo, human
# Protocol: 10 patients 56 to 72 years of age with persistent bronchial asthma (GINA II) treated with a combination therapy of inhalative glucocorticoid (beclometasone, 2×200 μg/day by inhalation) and inhalative long-acting beta-2-sympathomimetics (LABA, salmeterol) and also oral theophyllin were given 1,8-cineol (Soledum® capsules) 4×200 mg/day orally for one week. Even after a one-week therapy at the dose mentioned above, in 8 of the 10 subjects a slight to moderate improvement of lung function was achieved. After continuing therapy for a further twelve weeks, the persistent bronchial asthma had stabilized to such an extent that in 7 of the 10 patients the inhalative glucocorticoid required could be reduced by up to 60% and in 2 of the 10 patients the inhalative glucocorticoids could be discontinued altogether at times. […] In 5 of the patients treated, the betamimetics required, too, could be reduced by up to 40%.
# [5] = tested on: patients with persistent bronchial asthma (GINA III); experiment: Clinical add-on therapy with oral 1,8-cineol, persistent bronchial asthma GINA III, 12 patients; format: in vivo, human
# Text: Even after a one-week therapy at the dose mentioned above, in 9 of the 12 subjects a slight to moderate improvement of lung function was achieved. After continuing therapy for a further twelve weeks, the persistent bronchial asthma had stabilized to such an extent that in 9 of the 12 patients the inhalative glucocorticoid required could be reduced by up to 30%.
# [6] = tested on: smokers with COPD (GOLD II to III); experiment: Placebo-controlled double-blind study of additional therapy with 1,8-cineol in smokers with COPD; format: in vivo, human
# Protocol: In a placebo-controlled double-blind study, the effect of an additional therapy with 1,8-cineol in the form of capsules which dissolve in the small intestine (Soledum® capsules, 3×200 mg/day, oral) on exacerbation rate and lung function was examined in 3 winter months of two successive years using 242 smokers with COPD (GOLD II to III).
# [7] = tested on: production of TNF-α in ex-vivo stimulated peripheral human monocytes; experiment: TNF-α production in ex-vivo stimulated peripheral monocytes of former smokers under additional therapy; format: cell-based; conditions: long-term additional therapy with 1,8-cineol plus ICS-based therapy
# Protocol: (§1) From these patients, monocytes were obtained during ongoing therapy with ICS and incubated in vitro with a topical glucocorticoid in a dose-dependent manner.
# [8] = tested on: production of IL-8 in ex-vivo stimulated peripheral human monocytes; experiment: IL-8 production in ex-vivo stimulated peripheral monocytes of former smokers under additional therapy; format: cell-based; conditions: long-term additional therapy with 1,8-cineol plus ICS-based therapy
# Protocol: as §1
# [9] = tested on: superoxide dismutases (SOD); experiment: Superoxide dismutase activity
# [10] = tested on: hydrogen peroxide (H2O2) production; experiment: Hydrogen peroxide production; conditions: low concentrations relevant for the respiratory air and therapeutic range
# [11] = 1,8-cineol 6 × 10^−6 mol/l (0.9 μg/ml), Table 6 series
# [12] = 4×200 mg/day orally, after one week, add-on to beclometasone, salmeterol, theophyllin
smiles,measurement,setting,value
"CC12CCC(CC1)C(C)(C)O2 [1,8-cineol, 1,3,3-trimethyl-2-oxabicyclo-[2.2.2]-octane]","production of IL-1beta, change","[1]; 1,8-cineol on its own, 10^−6 mol/l, FIG. 1",−32%
same,Effect vs. control Inhibition (%),[1]; cineol 10^−6 mol/l,32.4±17%
same,Effect vs. cineol 10^−6 mol/l Inhibition (%),[1]; cineol 10^−6 mol/l (the reference itself),0 ± 17%
same,IL-1beta,"[1]; cineol 10^−6 mol/l, LPS, 20 hours",3548 ± 600 Pg/5 × 10^4 cells
same,Effect vs. control Inhibition (%),"[1]; cineol 10^−6 mol/l, listed as cineol",32.4 ± 17%
same,LPS-stimulated production of IL1-beta compared to the LPS control,"[1]; therapeutically relevant concentrations of 1,8-cineol, FIG. 2, p<0.01","inhibited by therapeutically relevant concentrations of 1,8-cineol in a dose-dependent manner and significantly"
same,INT-Formazan,[2]; 0.000015 μg/ml (10^−10 mol/l),21360 ± 1766 nmol/10^5
same,Comparison to control (%),[2]; 0.000015 μg/ml (10^−10 mol/l),−0.7 ± 8%
same,INT-Formazan,[2]; 0.00015 μg/ml (10^−9 mol/l),21329 ± 1920 nmol/10^5
same,Comparison to control (%),[2]; 0.00015 μg/ml (10^−9 mol/l),−0.8 ± 9%
same,INT-Formazan,[2]; 0.0015 μg/ml (10^−8 mol/l),21946 ± 1858 nmol/10^5
same,Comparison to control (%),[2]; 0.0015 μg/ml (10^−8 mol/l),2 ± 8%
same,INT-Formazan,[2]; 0.015 μg/ml (10^−7 mol/l),21899 ± 1879 nmol/10^5
same,Comparison to control (%),[2]; 0.015 μg/ml (10^−7 mol/l),1.8 ± 8%
same,INT-Formazan,[2]; 0.15 μg/ml (10^−6 mol/l),22286 ± 2036 nmol/10^5
same,Comparison to control (%),[2]; 0.15 μg/ml (10^−6 mol/l),3.6 ± 9%
same,INT-Formazan,[2]; 0.3 μg/ml (2 × 10^−6 mol/l),21499 ± 1959 nmol/10^5
same,Comparison to control (%),[2]; 0.3 μg/ml (2 × 10^−6 mol/l),0.04 ± 9%
same,INT-Formazan,[2]; 0.6 μg/ml (4 × 10^−6 mol/l),17240 ± 1637 nmol/10^5
same,Comparison to control (%),[2]; 0.6 μg/ml (4 × 10^−6 mol/l),−19.8 ± 9%
same,INT-Formazan,[2]; 0.9 μg/ml (6 × 10^−6 mol/l),12341 ± 1061 nmol/10^5
same,Comparison to control (%),[2]; 0.9 μg/ml (6 × 10^−6 mol/l),−42.6±8%
same,Comparison to control (%),"[2]; 0.9 μg/ml (6 × 10^−6 mol/l), listed as 1,8-Cineol",−42.6 ± 8%
same,INT-Formazan,[2]; 1.2 μg/ml (8 × 10^−6 mol/l),10086 ± 701 nmol/10^5
same,Comparison to control (%),[2]; 1.2 μg/ml (8 × 10^−6 mol/l),−53.1 ± 7%
same,INT-Formazan,[2]; 1.5 μg/ml (10^−5 mol/l),10202 ± 915 nmol/10^5
same,Comparison to control (%),[2]; 1.5 μg/ml (10^−5 mol/l),−52.6 ± 9%
same,O2^−,"[2]; 1,8-cineol 4 × 10^−6 mol/l (0.6 μg/ml), Table 5 series",16323 ± 1069 nmol/mL
same,O2^−,[2]; [11],9347 ± 494 nmol/mL
same,Percent of control,[2]; [11],−50.2±5%
same,lowest antioxidatively active concentration,[2]; FCS-stimulated O2^− production,6e-06 mol/L
same,inhibition of the production of O2^− radicals,"[2]; therapeutically relevant concentrations of 1,8-cineol, summary",about 50%
same,production of NO,[3]; subtherapeutic concentrations (0.15 μg/ml=10^−6 mol/l),inhibit the production of NO
same,production of NO,"[3]; therapeutic range of 1,8-cineol",stimulating effects on the production of NO
same,tolerability,[4]; 4×200 mg/day orally,"tolerated well, without any side-effects"
same,patients in whom the inhalative glucocorticoid required could be reduced,"[4]; 4×200 mg/day orally, after a further twelve weeks",7 of the 10
same,subjects with a slight to moderate improvement of lung function,[4]; [12],8 of the 10
same,patients in whom the inhalative glucocorticoids could be discontinued altogether at times,[4]; after a further twelve weeks,2 of the 10
same,reduction of the betamimetics required,[4]; after a further twelve weeks,up to 40%
same,reduction of the inhalative glucocorticoid (ICS dose) required,"[4]; long-term therapy with oral 1,8-cineol, one plus twelve weeks",up to 60%
same,patients in whom the betamimetics required could be reduced,[4]; of 10 patients treated,5
same,tolerability,[5]; 4×200 mg/day orally,"tolerated well, without any side-effects"
same,subjects with a slight to moderate improvement of lung function,[5]; [12],9 of the 12
same,patients in whom the inhalative glucocorticoid required could be reduced,[5]; after a further twelve weeks,9 of the 12
same,reduction of the betamimetics required,[5]; after a further twelve weeks,up to 25%
same,reduction of the inhalative glucocorticoid required,[5]; after a further twelve weeks,up to 30%
same,patients in whom the betamimetics required could be reduced,[5]; of 12 patients treated,4
same,"St. George's Respiratory Questionnaire (SGRQ), change in the verum group","[6]; 3×200 mg/day, oral",−10.4 units
same,"lung function (FEV1), change in the verum group","[6]; 3×200 mg/day, oral",+5.1%
same,reduction in the exacerbation rate compared to the placebo group,"[6]; 3×200 mg/day, oral, 3 winter months of two successive years, 242 smokers",−38.5%
same,further reduction of the frequency of exacerbations beyond known combined therapies,[6]; additional therapy with capsules which dissolve in the small intestine,25%
same,production of TNF-α compared to normal monocytes of nonsmokers,[7],inhibition of the production of TNF-α
same,production of IL-8 compared to normal monocytes of nonsmokers,[8],increased production of IL-8
same,superoxide dismutase activity,[9],partially inhibited
same,production of H2O2,[10],inhibited the production of O2^− radicals and H2O2
